A short description of series [1]: Pharmacokinetic study, p.o. and i.v. It is filed as in vivo, mouse.
Series [2] deals with 5×FAD mice. Briefly: Novel object recognition in 5×FAD mice. The following applies: 5×FAD males.
Experimental: Following the first exploration of the open field arena (described above), mice were returned to the same arena the next day, while the arena now contained two identical objects. Mice were allowed to explore the objects and the arena 3 times for 10 min, with an inter trial interval of 10 min. The following day one of the objects was replaced with a novel object, and the mice were returned to the arena and allowed to explore for 10 min. Mouse movement, exploration and nuzzling was automatically recorded with an Ikegami ICD-49E camera with EthoVision 14 (Noldus Information Technology). Discrimination of the novel object was assessed by calculating (time exploring novel object−time exploring familiar object)/(time exploring novel object+time exploring familiar object).
The test system of series [3] is 5×FAD mice. The series can be described thus: Open field in 5×FAD mice. It is filed as in vivo, mouse. As to the method: Mice were individually placed within a cage and taken to a dimly lit room containing an open field arena 50×50 cm in size. They were given 10 min prior to being placed within the arena, where for a period of 5 min they were allowed to explore. Two weeks later, this was repeated. […] The floor was either white or black, depending on mouse coat color, to allow automatic analysis of movement parameters, apart from rearing which was manually counted.

A further series is described as follows: in vitro. The following applies: human.
For the next series, the target named is T1, QR2 (Homo sapiens, UniProt P16083).
T1 sequence (P16083 1-231): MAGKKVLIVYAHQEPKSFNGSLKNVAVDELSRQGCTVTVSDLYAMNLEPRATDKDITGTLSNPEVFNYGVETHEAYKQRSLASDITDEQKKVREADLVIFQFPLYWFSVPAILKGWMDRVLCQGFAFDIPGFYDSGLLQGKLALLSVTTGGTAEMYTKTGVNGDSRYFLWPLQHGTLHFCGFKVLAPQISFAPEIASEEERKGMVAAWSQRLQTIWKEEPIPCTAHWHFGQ
Briefly: Cellular thermal shift assay (CETSA) of QR2 in HEK293T cells. In kind it is cell-based. On the set-up: endogenous in cells; host or cells: HEK293T. As to the method: The CETSA assay was performed as described (Miettinen and Björklund, 2014) with some modifications. Briefly, HEK293T cells were trypsinized (Biological Industries), washed in PBS (Sigma-Aldrich), and then suspended in PBS containing protease inhibitor cocktail (Roche). The suspended cells were then divided into two Eppendorf tubes and were treated with either: a compound or DMSO (Sigma-Aldrich) for 1 h at 37° C. under shaking. Following treatment, each sample was divided into PCR tubes (100 μL/tube) and subjected to a temperature gradient (ranging from 63 to 80° C.) for 3 minutes. Cell lysates were obtained by 3-cycles of freeze-thaw using liquid nitrogen and a thermal block set to 25° C. Samples were then centrifuged at 15,000 rpm at 4° C. for 20 min and were subsequently analyzed by western blot targeting QR2 (1:100, Santa Cruz; sc-271665). The isothermal dose response fingerprint (ITDRF) experiments were done using a constant temperature of 73° C. Band intensities were normalized to the highest concentration and superoxide dismutase 1 (SOD1) levels (1:200, Santa Cruz; sc-17767). Analysis of the results were performed according to Jafari et al., (2014) using GraphPad Prism software.
To establish direct target engagement, as well as cell membrane permeability, a cellular thermal shift assay (CETSA) was carried out (see methods), using the leading compounds YB-537, YB-800, and YB-808. Following 1 h preincubation with 5 μM of each of the compounds, or vehicle, thermal aggregation curves (Tagg) of QR2 expressed in HEK293T were measured in increasing temperatures. […] Based on the Tagg curves, the inventors selected 73° C. for isothermal dose-response fingerprint (IDTRF) experiments (FIG. 2B).

For a further series, the system named is HCT116 QR2Δ cells. The series can be described thus: H2DCFDA detection of cellular ROS in HCT116 QR2Δ cells. As to conditions: 20 μM, 3 h. It is filed as cell-based, human. From the text:
Additional details of the knockout procedure and corresponding figures have been previously published. Disruption of the NQO2 gene at positions 46 and 108 within exon 4 was done using CRISPR/Cas9 dual nickase (plasmid pSpCas9n(BB)-2A-Puro (PX462), Addgene #48141). The target sequence was selected using a CRISPR design tool (http://crispr.mit.edu/), which identified the guide sequences with the least off-targets. Vectors NQ024_46 and NQ024_108 were produced by cloning oligonucleotides corresponding to guide RNA (sgRNA) into PX462 as previously described. The vectors were then transfected into HCT 116 cells (at 70% confluence) using Lipofectamine 2000 (Life Technologies), and 24 h later 0.7 μg/mL puromycin (Alfa Aesar) was added to the media for 72 h. Cells that survived were then collected and serially diluted into 96 well plates, with puromycin supplemented media, to enable selection and expansion of plasmid containing colonies two weeks later.
The cells were harvested and resuspended in 1% clear medium (DMEM—with no phenol red, supplemented with 1% FBS, 1% L-Glutamine and 1% Penicillin-Streptomycin). […] The plate was then incubated in the dark at 37° C. for 3 h, before reading in a Tecan M200 Pro florescence microplate reader, using wavelengths Ex/Em=485 nm/535 nm.

Structures can show the parent of a compound that is named as a salt.

Experimental for in vitro: THLE-2 (CRL-2706™) were grown in the BEGM Bullet Kit (CC-3170) from Lonza. Besides the additives contained in the kit, the medium was further supplemented with 5 ng/mL EGF (Sigma), 70 ng/mL phosphoethanolamine (Sigma) and 10% FBS (Biological Industries). The plates for the THLE-2 needed to be pre-coated with a mixture of 0.01 mg/mL fibronectin, 0.05 mg/mL of PureCol™ EZ Gel Solution (Sigma) and 0.01 mg/mL of BSA dissolved in BEBM medium (Lonza). The coating medium was aspirated before seeding.
THLE-2 cells were exposed to the compounds in a 9-point, 2-fold dilution dose response series with a 100 μM as upper limit, for 72 h. Following the 72 h of exposure to the test compounds, cell viability was determined by measuring the concentration of cellular ATP (CellTiter Glo, Promega). The luminescence signal was measured on a Pherastar FS multi-mode plate reader (BMG Labtech). Each data point was tested in a triplicate.
First, toxicity was assessed in an ATP depletion assay, using THLE-2 cells following a 72 h exposure to a dose response of each of the tested compounds.

With `Cc1ccc(-c2cn3cccc(C)c3n2)cc1S(=O)(=O)N1CCNCC1` [YB-537, 8-methyl-2-(4-methyl-3-(piperazin-1-ylsulfonyl)phenyl)imidazo[1,2-a]pyridine hydrochloride], in series [1] (C57BL/6J, mouse, in vivo, po, p.o. 50 mg/kg, male mice, read-out: clearance rate half-life), the half-life was determined as 60.2 min. Besides, the brain clearance half-life in series [1] (acute oral dosing, mouse brain) is recorded as ~1 h. In series [1] (male, C57BL/6J, mouse, in vivo, po), the “peak concentration in brain” value is 203 ng/g. The molecule also yielded a bioavailability in series [1] (p.o. 50 mg/kg, male mice) of 82%. For the same molecule, in series [1] (p.o., male mouse brain), the brain clearance half-life came to 1.06 h and the “time of peak in brain following p.o. administration” value is listed as ~1 h. Moreover, the novel object discrimination with 5×FAD mice [2] is 0.06432±0.1285. Further, in the series with 5×FAD mice [3] (5×FAD both sexes), the average velocity worked out at 10.9 ± 0.800 cm/s, the hind-limb rearing frequency was 35.72±3.292, the “maximum movement bout duration” value was determined as 8.061 ± 1.322 s and the meandering was 733.4±42.8 deg/cm. In the series with 5×FAD mice [3] (5×FAD both sexes), the “proportion of time moving” value amounted to 81.44±1.134%, the total distance traveled stood at 3244±237.9 cm and the total movement duration stood at 244.3 ± 3.402 s. For the same molecule, in the series with 5×FAD mice [3] (5×FAD females), the average velocity turned out to be 12.03 ± 1.625 cm/s, the hind-limb rearing frequency came out at 35.29±4.894, the “maximum movement bout duration” value is 9.677 ± 3.012 s and the meandering is listed as 696.3±65.26 deg/cm. Besides, in the series with 5×FAD mice [3] (5×FAD females), the “proportion of time moving” value is reported as 81.84±1.856%, the total distance traveled was determined as 3581±484.5 cm and the total movement duration came out at 245.5 ± 5.568 s. In the series with 5×FAD mice [3] (5×FAD males), the average velocity amounted to 10.01 ± 0.611 cm/s, the hind-limb rearing frequency came to 36.06±4.703, the “maximum movement bout duration” value is on record as 6.804 s and the meandering is reported as 762.2±58.17 deg/cm. In addition, in the series with 5×FAD mice [3] (5×FAD males), the “proportion of time moving” value was 81.13±1.5%, the total distance traveled was 2983±179.3 cm and the total movement duration is 243.4 ± 4.5 s. The IC50 at 72 h in the series “in vitro” is > 99 µM.
For `Cc1cccn2cc(-c3cccc(S(=O)(=O)N4CCC(C)CC4)c3)nc12` [YB-800], at QR2 (5 μM, 1 h preincubation), the “thermal stability of QR2 (thermal aggregation curve) versus vehicle” value is recorded as “shifts of thermal stability”. The EC50 at QR2 (CETSA at 73° C., read-out: EC50 of QR2 stabilization (isothermal dose-response fingerprint)) was 34 nM. Besides, the “baseline ROS levels” value with HCT116 QR2Δ cells was −0.009±0.049 AU.

By half-life is commonly meant how long it takes for the measured level to halve. Usually bioavailability stands for dose-corrected exposure relative to a reference, in per cent. Higher therefore signals much systemic uptake. Usually IC50 stands for the point on the concentration scale where inhibition reaches its midpoint. High values mean weaker potency, low ones greater potency. The term EC50 denotes the concentration that produces a half-maximal response.
